In ChEMBL document CHEMBL1139642, “Design, synthesis, and evaluation of dioxane-based antiviral agents targeted against the Sindbis virus capsid protein” (Bioorg Med Chem Lett, 2005):

Columns and labels:
[1] = Cytotoxic concentration for 50% growth inhibition of uninfected BHK cells; assay type: cell-based, Mesocricetus auratus; details: hamster
Sindbis virus = assay: Effective concentration resulting in a 50% reduction in virus production in BHK cells; assay type: functional, organism-based

EC50 (Sindbis virus) [µM]	Compound	CC50 [1] [µM]
1	OC[C@@H]1COCCO1	> 1000
40	C(C[C@@H]1COCCO1)C[C@@H]1COCCO1	> 1000
> 100	O=C(C[C@@H]1COCCO1)C[C@@H]1COCCO1	> 1000
> 100	c1ccc(CCCC[C@@H]2COCCO2)cc1	600
